What all share (type): cell-based
Assay [1] relates to Leishmania donovani axenic amastigote parasites. Briefly: Assay for Leishmania proliferation in vitro (axenic amastigotes, Cell TiterGlo). The following applies: 48 h, 2 day incubation, read-out: L. donovani amastigotes EC50. In a few lines: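 L. donovani axenic amastigotes (9600 per well) are cultured with compound for 2 days at 37° C, 5% CO2 in RPMI-based medium at pH 5.5. Viability is read by CellTiterGlo luminescence, and EC50 is calculated.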

In assay [2] the test system is Trypanosoma brucei Lister 427 strain. Briefly: Assay for proliferation of kinetoplastid parasite Trypanosoma brucei (Cell Titer Glo). The following applies: bloodstream form, 48 hours, read-out: T. brucei EC50. An excerpt: The proliferation is quantified by the addition of Cell Titer Glo (Promega®) a luminescent cell viability assay that measures the number of viable cells in culture based on the quantification of cellular ATP amount, which is an indicator of metabolically active cells. The following assay illustrates the invention without in any way limiting the scope of the invention. This parasite proliferation assay measures the increase in parasite growth using an assay that measures ATP activity, Cell Titer Glo®.
Trypanosoma brucei Lister 427 strain is grown in HMI-9 Trypanosome media for T. brucei bloodstream form. 30 μl of HMI-9 media is dispensed into 384 well assay plates. 200 nL of compounds of the invention (in DMSO), including anti-trypanosome controls (Pentamidine and suramin), are then transferred into the assay plates, as well as DMSO alone to serve as a negative control for inhibition. Then 25 μl of a suspension of T. brucei culture in HMI-9 media is dispensed into the assay plates. The final concentration of parasites in culture corresponds to 1.7% of 0.5 uM ATP activity with Cell Titer Glo® in HMI-9 media. The plates are placed in a 37° C. incubator for 48 hours in an atmospheric environment containing 5% CO2. 40 μl of Cell Titer Glo® is dispensed into the plates. The plates are then read for luminescence. The percentage inhibition of 50%, EC50, is calculated for each compound.
(Cellular ATP, detected with luciferase, serves as a proxy for viable cell number.)

Assay [3] has as its system L. donovani HU3 strain in mouse peritoneal macrophages. Briefly: Proliferation of L. donovani in mouse peritoneal macrophages (SybrGreen, high-content imaging). The following applies: Leishmania donovani, Peritoneal macrophage, 120 h; infected mouse peritoneal macrophages, 5 days; read-out: L. donavani Macrophage EC50. In a few lines:
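Peritoneal macrophages from uninfected BALB/c mice were infected for 24 h with spleen-derived amastigotes (9-11 week infected mice), then exposed to compound for 5 days at 37° C. Fixed cells stained with SybrGreen and parasite nuclei counted by high-content imaging; EC50 calculated from inhibition.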

Assay [4] concerns Trypanosoma cruzi amastigotes cultured in 3T3 fibroblast cells. In words: Assay for proliferation of kinetoplastid parasite Trypanosoma cruzi (beta-galactosidase/CPRG readout). The following applies: NIH3T3, 144 h, Tulahuen strain in 3T3 cells, 6 day incubation, read-out: T cruzi EC50. An excerpt:
Compounds of the invention can be assayed to measure their capacity to inhibit proliferation of kinetoplastid parasite Trypanosoma cruzi. The screening procedure is for identifying compounds with inhibitor activity against Trypanosoma cruzi amastigotes cultured in 3T3 fibroblast cells. The assay is done using the mammalian stage (amastigotes) of T. cruzi that replicates in the intracellular space of host cells. The host cells are initially infected with the culture-derived trypomastigotes that rapidly invade and then divide as amastigotes. The protocol uses the Tulahuen strain of T. cruzi that has been engineered to express the E. coli beta-galactosidase gene (Lac-Z) (Antimicr. Agents Chemoth. 40:2592, 1996). This allows for a colorimetric readout by using the substrate CPRG and an absorbance plate reader.
3T3 fibroblast cells are re-suspended in RPMI-1640 medium without phenol red medium supplemented with 10% FBS (heat inactivated), 100 μg/ml penicillin, and 100 μg/ml streptomycin. Forty μL of suspension (1,000 cells) is dispensed into 384-well plates and incubated overnight at 37° C. temperature and in atmosphere containing 5% CO2. The following day, 100 nL of compounds of the invention in DMSO are added to plate wells containing 3T3 cells. At the same time control compounds (benznidazole and nifurtimox) and DMSO are added to plates to serve as the positive and negative controls, respectively. After that, 10 μL of media containing 10,000 T. cruzi trypomastigotes are added to each plate well and plates are placed back into incubators. After 6 day incubation, 10 μL of reagent solution (0.6 mM CPRG, 0.6% NP-40 in PBS) is added to plates and incubated at room temperature for 2 hours. Absorbance is then measured on SpectraMax Gemini fluorimeter to determine relative number of T. cruzi cells present in each plate well. The percentage inhibition of 50%, EC50, is calculated for each compound.

Broadly, the EC50 is the concentration at which the effect is half-maximal.

In the case of `O=C(CCCN1CCOCC1)Nc1cnc2nc(-c3cc(NC(=O)c4ccc(F)o4)ccc3Cl)[nH]c2c1` [Example 66, N-(4-chloro-3-{6-[4-(morpholin-4-yl)butanamido]-1H-imidazo[4,5-b]pyridin-2-yl}phenyl)-5-fluorofuran-2-carboxamide], the EC50 in assay [1] was greater than 25000 nM; in assay [2], 2300 nM; in assay [3], 39200 nM; in assay [4], greater than 20000 nM.

For the molecule `CC(C)(CO)C(=O)Nc1cnc2nc(-c3cc(NC(=O)c4ccco4)ccc3Cl)[nH]c2c1` [Example 22, N-{4-chloro-3-[6-(3-hydroxy-2,2-dimethylpropanamido)-1H-imidazo[4,5-b]pyridin-2-yl]phenyl}furan-2-carboxamide], the half-maximal effective concentration (EC50) in assay [1] was 20700 nM; in assay [2], 760 nM; in assay [3], greater than 50000 nM.

With `O=C(Nc1ccc(Cl)c(-c2nc3ncc(NC(=O)C(O)CO)cc3[nH]2)c1)c1ccco1` (centres unmarked) [Example 18, N-{4-chloro-3-[6-(2,3-dihydroxypropanamido)-1H-imidazo[4,5-b]pyridin-2-yl]phenyl}furan-2-carboxamide], the figures for the EC50 in assay [1], in assay [2] and in assay [3] were 8900 nM, 1720 nM and 16900 nM, respectively.

Regarding `CC(C)OC(=O)Nc1cnc2nc(-c3cc(NC(=O)c4ccc(C#N)o4)ccc3Cl)[nH]c2c1` [Example 48, propan-2-yl N-{2-[2-chloro-5-(5-cyanofuran-2-amido)phenyl]-1H-imidazo[4,5-b]pyridin-6-yl}carbamate], the EC50 stood at 620 nM in assay [1], 223 nM in assay [2], 560 nM in assay [3] and 141 nM in assay [4].

Regarding `O=C(Nc1ccc(Cl)c(-c2nc3ncc(NC(=O)C4CC(F)(F)C4)cc3[nH]2)c1)c1ccco1` [Example 57, N-(4-chloro-3-{6-[(3,3-difluorocyclobutane)amido]-1H-imidazo[4,5-b]pyridin-2-yl}phenyl)furan-2-carboxamide], the EC50 in assay [1] is 8200 nM; in assay [2] it was 500 nM; in assay [3], 12800 nM; in assay [4], 7400 nM.

Regarding `O=C(Nc1cccnc1)Nc1cnc2nc(-c3cc(NC(=O)c4ccco4)ccc3Cl)[nH]c2c1` [Example 21, N-[4-chloro-3-(6-{[(pyridin-3-yl)carbamoyl]amino}-1H-imidazo[4,5-b]pyridin-2-yl)phenyl]furan-2-carboxamide], the EC50 is 17700 nM in assay [1], 1590 nM in assay [2], greater than 50000 nM in assay [3] and greater than 20000 nM in assay [4].

On to `O=C(C[C@@H]1CCNC1)Nc1cnc2nc(-c3cc(NC(=O)c4ccco4)ccc3Cl)[nH]c2c1` [Example 32, N-[4-chloro-3-(6-{2-[(3S)-pyrrolidin-3-yl]acetamido}-1H-imidazo[4,5-b]pyridin-2-yl)phenyl]furan-2-carboxamide], for which the EC50 was greater than 25000 nM in assay [1], 7800 nM in assay [2], greater than 50000 nM in assay [3] and greater than 20000 nM in assay [4].

For the molecule `CC1(OC(=O)Nc2cnc3nc(-c4cc(NC(=O)c5ccco5)ccc4Cl)[nH]c3c2)CC1` [Example 49, 1-methylcyclopropyl N-{2-[2-chloro-5-(furan-2-amido)phenyl]-1H-imidazo[4,5-b]pyridin-6-yl}carbamate], the half-maximal effective concentration (EC50) in assay [1] stood at 480 nM; in assay [2] it was 81 nM; in assay [3], 490 nM; in assay [4], 440 nM.

On to `N#CC1(C(=O)Nc2cnc3nc(-c4cc(NC(=O)c5ccco5)ccc4Cl)[nH]c3c2)CC1` [Example 41, N-(4-chloro-3-{6-[(1-cyanocyclopropane)amido]-1H-imidazo[4,5-b]pyridin-2-yl}phenyl)-furan-2-carboxamide], for which the 50% effective concentration (EC50) in assay [1] turned out to be 680 nM; in assay [2] it was 80 nM; in assay [3], 1450 nM; in assay [4], 820 nM.

As to `Nc1cnc2nc(-c3cc(NC(=O)c4ccco4)ccc3Cl)[nH]c2c1` [Example 20, N-(3-{6-amino-1H-imidazo[4,5-b]pyridin-2-yl}-4-chlorophenyl)furan-2-carboxamide], the EC50 in assay [1] amounted to 13600 nM; in assay [2], 1380 nM; in assay [3] it was 18900 nM; in assay [4] it was 4700 nM.

Take `N#CC1(C(=O)Nc2cnc3nc(-c4cc(NC(=O)c5ccc(F)o5)ccc4Cl)[nH]c3c2)CC1` [Example 70, N-(4-chloro-3-{6-[(1-cyanocyclopropane)amido]-1H-imidazo[4,5-b]pyridin-2-yl}phenyl)-5-fluorofuran-2-carboxamide]: the EC50 in assay [1] turned out to be 1200 nM; in assay [2], 32 nM; in assay [3], 530 nM; in assay [4], 720 nM.

In the case of `CC(C)OC(=O)Nc1cnc2nc(-c3cc(NC(=O)c4ccco4)ccc3Cl)[nH]c2c1` [Example 2, propan-2-yl N-{2-[2-chloro-5-(furan-2-amido)phenyl]-1H-imidazo[4,5-b]pyridin-6-yl}carbamate], the EC50 in assay [1] was 190 nM; in assay [2] it was 39 nM; in assay [3] it was 315 nM; in assay [4], 142 nM.

Turning to `O=C(Nc1ccc(Cl)c(-c2nc3ncc(NC(=O)C4(C(F)(F)F)CCC4)cc3[nH]2)c1)c1ccc(F)o1` [Example 71, N-[4-chloro-3-(6-{[1-(trifluoromethyl)cyclobutane]amido}-1H-imidazo[4,5-b]pyridin-2-yl)phenyl]-5-fluorofuran-2-carboxamide], the concentration giving a half-maximal response (EC50) in assay [1] is 1400 nM; in assay [2], 30 nM; in assay [3], 263 nM; in assay [4], 153 nM.

For `COC(=O)Nc1cnc2nc(-c3cc(NC(=O)c4ccco4)ccc3Cl)[nH]c2c1` [Example 9, methyl N-{2-[2-chloro-5-(furan-2-amido)phenyl]-1H-imidazo[4,5-b]pyridin-6-yl}carbamate], the EC50 in assay [1] was 950 nM; in assay [2], 143 nM; in assay [3], 2480 nM.

Regarding `O=C(CCN1CCOCC1)Nc1cnc2nc(-c3cc(NC(=O)c4ccc(F)o4)ccc3Cl)[nH]c2c1` [Example 72, N-(4-chloro-3-{6-[3-(morpholin-4-yl)propanamido]-1H-imidazo[4,5-b]pyridin-2-yl}phenyl)-5-fluorofuran-2-carboxamide], the EC50 in assay [1] was greater than 25000 nM; in assay [2] it was 5360 nM; in assay [3], 34100 nM; in assay [4] it was greater than 20000 nM.

Turning to `O=C(Nc1ccc(Cl)c(-c2nc3ncc(NC(=O)C4CC4)cc3[nH]2)c1)c1ccc(F)o1` [Example 65, N-(4-chloro-3-{6-cyclopropaneamido-1H-imidazo[4,5-b]pyridin-2-yl}phenyl)-5-fluorofuran-2-carboxamide], the EC50 in assay [1] came out at 1470 nM; in assay [2] it was 23 nM; in assay [3] it was 570 nM; in assay [4], 1020 nM.

In the case of `CC(C)OC(=O)Nc1cnc2nc(-c3cc(NC(=O)N4CCCC4)ccc3Cl)[nH]c2c1` [Example 54, propan-2-yl N-(2-{2-chloro-5-[(pyrrolidin-1-yl)carbonylamino]phenyl}-1H-imidazo[4,5-b]pyridin-6-yl)carbamate], the half-maximal effective concentration (EC50) in assay [1] was found to be 590 nM; in assay [2] it was 68 nM; in assay [3], 1860 nM; in assay [4], 1390 nM.

Regarding `CCOC(=O)Nc1cnc2nc(-c3cc(NC(=O)c4ccco4)ccc3Cl)[nH]c2c1` [Example 6, ethyl N-{2-[2-chloro-5-(furan-2-amido)phenyl]-1H-imidazo[4,5-b]pyridin-6-yl}carbamate], the figures for the EC50 in assay [1], in assay [2] and in assay [3] were 580 nM, 34 nM and 1420 nM, respectively.

The values are drawn from patent US9186361B2, “Compounds and compositions for the treatment of parasitic diseases” (Novartis AG, priority 2013, dated 2015).
